These results are taken from US9822373B2, “Mutant cells for protein secretion and lignocellulose degradation” (The Regents of the University of California, priority 2011, dated 2017).

The test system of assay [1] is Exoglucanase (Cellobiohydrolase I). Description: MuLac (4-Methylumbelliferyl β-D-cellobioside) exoglucanase activity of culture supernatant. It counts as cell-based, Neurospora crassa. Conditions: for MuLac activity: triple β-glucosidase deletion. The procedure: Strains were inoculated at an OD595 equal to 0.05 in 100 ml Vogel's salts with 1% (wt/vol) sucrose in a 250 ml Erlenmeyer flask and grown under constant light at 200 rpm for 24 hours. Cultures were then induced with 2% sucrose, 2% cellobiose, 1% sucrose/1% cellobiose, or 1% sucrose/1% Avicel®. Cultures continued to grow under constant light at 200 rpm for 5 days with supernatant collected at 1, 2, 3, 4 and 5 day. The collected supernatant was filtered through a 0.2 μm PES filter to remove biomass before being stored at −20° C. until all samples were collected. To visualize the secreted proteins, 15 μl of unconcentrated supernatant was run on a Criterion 10% Tris-HCL polyacrylamide gel and stained with Thermo Scientific GelCode Blue Stain Reagent.
Exoglucanase (Cellobiohydrolase I) activity was measured using a 4-Methylumbelliferyl β-D-cellobioside (MuLac) assay. This assay mainly measures the activity of CBH-1 and activity is expressed as the change in fluorescence over time resulting in the slope of a best-fit line as an indication of enzyme activity. Prior to performing this assay, any excess sugars in the culture supernatant were removed by passing the supernatant over a 5,000 Dalton concentrator (sartorius stedim Vivaspin 500). Retained proteins were washed twice with 50 mM sodium acetate pH 5 and diluted to 2 μg/μl to assure that the assay remained in the linear range. […] The assay was performed in a Beckman Coulter Paradigm plate reader set at 40° C. with excitation/emission wavelengths of 360/465 nm with readings every 30 seconds for 10 minutes. The slope of the best-fit line represents the MuLac activity for an individual culture supernatant. The MuLac activity is normalized to the initial dilution required to obtain a 2 μg/μl concentration in order to represent the undiluted activity. The activity of recombinant cellobiohydrolase-1 was used as a standard and data is presented as a percentage of the wild type activity on Avicel® after 4 days.

The test system of a further assay is Neurospora crassa. As to the kind of experiment: Avicel hydrolysis assay with shake flask culture supernatants. It counts as cell-based. The procedure: Cultures were grown in 1% sucrose for 24 hours followed by the addition of 2% sucrose or 0.2% cellobiose. Supernatant was harvested after 24 (WT, Δ3βG and Δ3βGΔcre) or 72 hours (Δ3βG). The WT Avicel® culture was grown for 5 days on 2% Avicel®, Δ3βG was grown in 1% sucrose for 24 hours followed by 48 hours in 1% Avicel® and Δ3βGΔcre was grown in 1% sucrose for 24 hours followed by 24 hours in 1% Avicel®.
Total Avicelase activity was conducted in 250 mL media bottles incubated at 50° C. on a orbital shaker at 200 rpm. Each bottle contained 1% cellulose (Avicel®) and 50 mM (pH 5.0) sodium acetate in a working volume of 50 mL. Tetracycline (10 μg/mL) was added to prevent microbial contamination. Bioreactor culture broth samples were buffer exchanged using a 10 kDa MWCO centrifugal filter to remove any soluble sugars prior to initiating hydrolysis experiments. After pre-incubating the hydrolysis mixture to 50° C., enzyme was added (1 mL filtered culture broth). Samples were taken every 4 hours for the first 12 hours and then every 12 hours thereafter for a total of 48 hours. Hydrolysis experiments were performed in triplicate.
Sucrose, fructose, glucose and cellobiose were measured on a DIONEX ICS-3000 HPLC (Dionex Corp., Sunnyvale, Calif.) using a CarboPac PA20 Analytical Column (3×150 mm) and a CarboPac PA20 guard column (3×30 mm) at 30° C. Following injection of 25 μl of diluted samples, elution was performed with 100 mM KOH (isocratic) at 0.4 ml/min. Sugars were detected using PAD, Four-Potential Carbohydrate Waveform and Peaks were analyzed using the Chromeleon software package.

Regarding `O=C[C@H](O)[C@@H](O)[C@H](O[C@@H]1O[C@H](CO)[C@@H](O)[C@H](O)[C@H]1O)[C@H](O)CO` [cellobiose], the MuLac activity in assay [1] (4 days) is 4.84 μg CBHI equivalent; in assay [1] (two days), 1.4 μg recombinant CBHI. The “MuLac activity (CBHI equivalent produced)” value in assay [1] (triple β-glucosidase/Δcre-1 deletion strain, four days) is on record as “more than 11 μg CBHI equivalent”. The “activity towards MuLac” value in assay [1] (Δcre-1, time not stated) worked out at 0.8 µg. Further, the entries for the “hydrolysis of crystalline cellulose by culture supernatant” value with Neurospora crassa (WT cultures grown on or induced with the substance), with Neurospora crassa (Δ3βG cultures grown on or induced with the substance) and with Neurospora crassa (Δ3βGΔcre cultures grown on or induced with the substance) were “did not”, “hydrolyzed crystalline cellulose” and “hydrolyzed crystalline cellulose”, respectively.
